Measurements reported in patent publication US11084790B2, “Insoluble complex or solvate thereof, pharmaceutical composition and use thereof” (Fruithy Holdings Limited, priority 2017, dated 2021).
≈ marks a conversion by molar mass, not a printed value.

Assay: Test on the solubility in a simulated body fluid
Type: physicochemical
Settings: for Compound concentration: Bupivacaine / Compound concentration: DBTA / Compound concentration: DTTA / Compound concentration: Ropivacaine / Compound concentration: naphthol phosphate / solubility / Compound concentration: Pamoic acid: 0.01 M PBS pH 7.4, 37° C.
Protocol: Test on the Solubility in a Simulated Body Fluid
The concentration of the drug dissolved in the PBS buffered solution was determined with an HPLC-a method.

Compound	Compound concentration: Bupivacaine (5 min) [µM]	Compound concentration: Bupivacaine (15 min) [µM]	Compound concentration: Bupivacaine (30 min) [µM]	Compound concentration: Bupivacaine (1 h) [µM]	Compound concentration: Bupivacaine (2 h) [µM]	Compound concentration: Bupivacaine (6 h) [µM]	Compound concentration: Bupivacaine (24 h) [µM]	Compound concentration: DTTA (5 min) [µM]	Compound concentration: DTTA (15 min) [µM]	Compound concentration: DTTA (30 min) [µM]	Compound concentration: DTTA (1 h) [µM]	Compound concentration: DTTA (2 h) [µM]	Compound concentration: DTTA (6 h) [µM]	Compound concentration: DTTA (24 h) [µM]	stability of the suspension (ratio between acid radical and basic group) (simulated body fluid)	solubility (simulated body fluid)	other results
CCCCN1CCCCC1C(=O)Nc1c(C)cccc1C (stereo not drawn) [Bupivacaine free base, reference compound]																	solubility at 24 h (phosphate buffered saline (simulated body fluid), 37 °C, aqueous buffer, thermodynamic from solid, simulated body fluid, 0.01 M PBS at pH 7.4, read-out: Saturated solubility): 1450 µM (≈ 418 µg/mL)
CCCCN1CCCCC1C(=O)Nc1c(C)cccc1C.O=C(OC(C(=O)O)C(OC(=O)c1ccccc1)C(=O)O)c1ccccc1 (stereo not drawn) [Preparation Example 1, mono(bupivacaine) dibenzoyl tartarate]	4884.6	6987.2	7755.2	8196	7911.7	7006.1	5767.9										Compound concentration: DBTA (5 min): 4992 µM; Compound concentration: DBTA (15 min): 7107.7 µM; Compound concentration: DBTA (30 min): 7866.6 µM; Compound concentration: DBTA (1 h): 8284.6 µM; Compound concentration: DBTA (2 h): 8015.5 µM; Compound concentration: DBTA (6 h): 7590.5 µM; Compound concentration: DBTA (24 h): 7303.7 µM
CCCCN1CCCCC1C(=O)Nc1c(C)cccc1C.CCCCN1CCCCC1C(=O)Nc1c(C)cccc1C.O=C(OC(C(=O)O)C(OC(=O)c1ccccc1)C(=O)O)c1ccccc1 (stereo not drawn) [Preparation Example 2, bis(bupivacaine) dibenzoyl tartarate]	819	1593.7	2133.2	2848.7	3565.4	6577	6389.6										Compound concentration: DBTA (5 min): 769.6 µM; Compound concentration: DBTA (15 min): 1550.4 µM; Compound concentration: DBTA (30 min): 2183.8 µM; Compound concentration: DBTA (1 h): 3035.9 µM; Compound concentration: DBTA (2 h): 3953.3 µM; Compound concentration: DBTA (6 h): 6336.3 µM; Compound concentration: DBTA (24 h): 6122.7 µM
CCCCN1CCCCC1C(=O)Nc1c(C)cccc1C.Cc1ccc(C(=O)OC(C(=O)O)C(OC(=O)c2ccc(C)cc2)C(=O)O)cc1 (stereo not drawn) [Preparation Example 3, mono(bupivacaine) di-p-toluoyl tartarate]	7947.6	7862.6	7662.2	7519	7719.3	7883.2	7917.8	7316.3	7244.6	7012.2	6900.6	7048.1	7211.7	7249			
CCCCN1CCCCC1C(=O)Nc1c(C)cccc1C.CCCCN1CCCCC1C(=O)Nc1c(C)cccc1C.Cc1ccc(C(=O)OC(C(=O)O)C(OC(=O)c2ccc(C)cc2)C(=O)O)cc1 (stereo not drawn) [Preparation Example 4, bis(bupivacaine) di-p-toluoyl tartarate]	11389.4	12009.1	11426.9	11256.7	11278.1	11851.8	11693.3	5161	5399.5	5135	5084.8	5068.3	5312	5219.7			
CCCN1CCCC[C@H]1C(=O)Nc1c(C)cccc1C.Cc1ccc(C(=O)OC(C(=O)O)C(OC(=O)c2ccc(C)cc2)C(=O)O)cc1 (stereo not drawn) [Preparation Example 5, mono(ropivacaine) di-p-toluoyl tartarate]								6676.8	6612.8	6704	6752.1	6988	6971.8	7073.8			Compound concentration: Ropivacaine (5 min): 7268.7 µM; Compound concentration: Ropivacaine (15 min): 7215.5 µM; Compound concentration: Ropivacaine (30 min): 7287.2 µM; Compound concentration: Ropivacaine (1 h): 7343.7 µM; Compound concentration: Ropivacaine (2 h): 7630.4 µM; Compound concentration: Ropivacaine (6 h): 7604.1 µM; Compound concentration: Ropivacaine (24 h): 7648.9 µM
CCCN1CCCC[C@H]1C(=O)Nc1c(C)cccc1C.CCCN1CCCC[C@H]1C(=O)Nc1c(C)cccc1C.Cc1ccc(C(=O)OC(C(=O)O)C(OC(=O)c2ccc(C)cc2)C(=O)O)cc1 (stereo not drawn) [Preparation Example 6, bis(ropivacaine) di-p-toluoyl tartarate]								13380.8	15017.3	18586.4	19990.1	19679	19617.2	22843.9			Compound concentration: Ropivacaine (5 min): 26058.5 µM; Compound concentration: Ropivacaine (15 min): 29888.8 µM; Compound concentration: Ropivacaine (30 min): 38657.6 µM; Compound concentration: Ropivacaine (1 h): 41983.6 µM; Compound concentration: Ropivacaine (2 h): 41011.1 µM; Compound concentration: Ropivacaine (6 h): 40777.8 µM; Compound concentration: Ropivacaine (24 h): 47445.3 µM
CCCCN1CCCCC1C(=O)Nc1c(C)cccc1C.O=P1(O)Oc2ccc3ccccc3c2-c2c(ccc3ccccc23)O1 [Preparation Example 7, bupivacaine binaphthol phosphate]	263	271.4	310.5	280.7	314.8	317.7	268.4								stable	about 0.3 mM	Compound concentration: naphthol phosphate (5 min): 293.5 µM; Compound concentration: naphthol phosphate (15 min): 275.6 µM; Compound concentration: naphthol phosphate (30 min): 264.3 µM; Compound concentration: naphthol phosphate (1 h): 263.3 µM; Compound concentration: naphthol phosphate (2 h): 278.9 µM; Compound concentration: naphthol phosphate (6 h): 288.4 µM; Compound concentration: naphthol phosphate (24 h): 264.6 µM
CC1(C)C2CCC1(CS(=O)(=O)O)C(=O)C2.CCCCN1CCCCC1C(=O)Nc1c(C)cccc1C (stereo not drawn) [Preparation Example 8, bupivacaine camphorsulfonate]	47678.3	57125.4	68314.9	68195.8	68902.6	71253.9	66020										
CCCN1CCCC[C@H]1C(=O)Nc1c(C)cccc1C.O=C(O)c1cc2ccccc2c(Cc2c(O)c(C(=O)O)cc3ccccc23)c1O [Preparation Example 9, mono(ropivacaine) pamoate]															stable	about 2.0 mM	Compound concentration: Pamoic acid (5 min): 345.9 µM; Compound concentration: Ropivacaine (5 min): 347.9 µM; Compound concentration: Pamoic acid (15 min): 601.5 µM; Compound concentration: Ropivacaine (15 min): 602.6 µM; Compound concentration: Pamoic acid (30 min): 880.3 µM; Compound concentration: Ropivacaine (30 min): 887 µM; Compound concentration: Pamoic acid (1 h): 1280.8 µM; Compound concentration: Ropivacaine (1 h): 1285.6 µM; Compound concentration: Pamoic acid (2 h): 1668.4 µM; Compound concentration: Ropivacaine (2 h): 1660.8 µM; Compound concentration: Pamoic acid (6 h): 1953.9 µM; Compound concentration: Ropivacaine (6 h): 1944 µM; Compound concentration: Pamoic acid (24 h): 2052.3 µM; Compound concentration: Ropivacaine (24 h): 1972 µM
CCCCN1CCCCC1C(=O)Nc1c(C)cccc1C.CCCCN1CCCCC1C(=O)Nc1c(C)cccc1C.O=C(O)c1cc2ccccc2c(Cc2c(O)c(C(=O)O)cc3ccccc23)c1O [Preparation Example 12, bis(bupivacaine) pamoate]	147.5	210.1	247.4	267.2	280.2	290.8	284.8								stable	about 0.3 mM	Compound concentration: Pamoic acid (5 min): 73.6 µM; Compound concentration: Pamoic acid (15 min): 107 µM; Compound concentration: Pamoic acid (30 min): 127.4 µM; Compound concentration: Pamoic acid (1 h): 137.5 µM; Compound concentration: Pamoic acid (2 h): 140 µM; Compound concentration: Pamoic acid (6 h): 149.7 µM; Compound concentration: Pamoic acid (24 h): 142.9 µM
CCCCN1CCCCC1C(=O)Nc1c(C)cccc1C.CCCCN1CCCCC1C(=O)Nc1c(C)cccc1C.O=C(O)c1cc2ccccc2c(Cc2c(O)c(C(=O)O)cc3ccccc23)c1O [Preparation Example 29, bis(bupivacaine) pamoate]	159.8	196.9	241.5	269.9	271.3	275.1	305								stable	about 0.3 mM	Compound concentration: Pamoic acid (5 min): 78.2 µM; Compound concentration: Pamoic acid (15 min): 97.3 µM; Compound concentration: Pamoic acid (30 min): 122.1 µM; Compound concentration: Pamoic acid (1 h): 119.5 µM; Compound concentration: Pamoic acid (2 h): 140 µM; Compound concentration: Pamoic acid (6 h): 145 µM; Compound concentration: Pamoic acid (24 h): 151.6 µM
